Experimental data taken from patent US5523321A, “Prostacyclins, their analogs or prostaglandins and thromboxane antagonists for treatment of thrombotic and thromboembolic syndromes” (Schering Aktiengeselleschaft, priority 1985, dated 1996).
pIC50: −log10 of the molar value. Read-outs that look alike come from different tables or passages of the source.

Key:
[1] = tested on: platelet aggregation induced by U 46 619 (human PRP); experiment: Thrombocyte function in vitro: aggregation by U 46 619 (human PRP); format: cell-based
Procedure: (§1) 1. Thrombocyte Function In Vitro (Human PRP)
(§2) BM 13 177 (in the text, BM) and Iloprost are tested in their action on thrombocyte aggregation and thrombocyte shape change against stimulants U 46 619 (9,11-dideoxy,9alpha-11alpha-methanoepoxy PGF2alpha, stable TXA2 agonist) and ADP and the IC50 values are determined. Then in several independent tests the action of a combination of the two substances on the aggregation (U 46 619 and ADP) in various concentrations is tested; especially the combination of low dosages and of dosages of the two substances in the range of the IC50 values is tested.
(§3) Platelet aggregation and shape change are measured as light-optical phenomena in stimulated PRP (platelet rich plasma) samples. In this case, the shape change is detected as the density increase of the sample by transition of the discoid rest shape of the platelet into a spherozytic shape with formation of pseudopodlike membrane formations and represented on a recorder. The aggregation is photometrically detected as density […] by clumping and "precipitation" of platelet aggregates and represented on a recorder.

[2] = tested on: platelet shape change induced by U 46 619 (human PRP); experiment: Thrombocyte function in vitro: shape change by U 46 619 (human PRP); format: cell-based; conditions: for pIC50: human PRP, stimulant U 46 619
Procedure: as §1, §2, §3
Example 2: Shape change by 50 ng/ml U 46 619

[3] = tested on: 2nd wave of aggregation induced by ADP (human PRP); experiment: Thrombocyte function in vitro: 2nd wave of aggregation by ADP (human PRP); format: cell-based; conditions: for % Inhibition (2nd wave of aggregation): 0.5×10^-6 M ADP; for pIC50: human PRP, stimulant ADP
Procedure: as §1, §2, §3
Example 3: 2nd wave of aggregation by 0.5×10^-6 M ADP

[4] = tested on: intravascular thrombocyte aggregation (collagen-induced thrombocytopenia); experiment: Intravascular thrombocyte aggregation on anesthetized rats (collagen-induced thrombocytopenia); format: in vivo
Description: 2. Intravascular Thrombocyte Aggregation on Anesthetized Rats
The influence of the intravascular thrombocyte aggregation is examined on urethane anesthetized rats.
Collagen (100 micrograms/kg i.v. bolus) causes transitory thrombocytopenias (a transient loss of blood platelet concentration), measured by continuous taking of blood from the A. carotis (50 microliter/min) and thrombocyte counting in the Technicon Autocounter. The change of the collagen-induced thrombocytopenia (% of loss) in comparison with the initial value (=2nd collagen injection) serves as a measurement for the inhibition of the intravascular platelet aggregation.

[5] = tested on: mesenteric arteriole thrombosis (topical ADP); experiment: Mesenteric arteriole thrombosis on anesthetized guinea pigs; format: in vivo
Procedure: 3. Mesenteric Arteriole Thrombosis on Anesthetized Guinea Pigs
A mesenteric loop for vital microscopy is prepared on anesthetized guinea pigs. After electrical lesion of an arteriole, under controlled conditions and after substance application, ADP is applied topically until finding of a thrombogenic dose (occlusion by platelet thrombus).
Parameters: increasing of the thrombogenic ADP concentration vs. initial value; i.v. infusion of Iloprost, i.v. injection of BM 13 177.

[6] = tested on: jugular vein thrombosis; experiment: Jugular vein thrombosis on anesthetized rats; format: in vivo
Procedure: 4. Jugular Vein Thrombosis on Anesthetized Rats
By stressing of the jugular vein of rats anesthetized with urethane with a metal punch cooled to -15° C. (200 g, 2 min) the vessel is predamaged. The thrombus grown within 3 hours on this site is quantified (Hb content wet weight) by determinations of its Hb content (difference damaged-undamaged vessel segment).
The infusion of the test substances begins 15 min before damaging the vein and is continued until the end of the test.

[7] = Blood pressure of spontaneously hypertonic (SH) rats; conditions: Iloprost 0.3 microgram/kg/min (threshold dose), awake SH rats

O=C(O)COc1ccc(CCNS(=O)(=O)c2ccccc2)cc1 [BM 13 177, 4-[2-(benzenesulfonamido)-ethyl]-phenoxyacetic acid]
pIC50 ([1]; BM 13 177, human PRP, stimulant U 46 619, read-out: IC50 for the aggregation): 5.18 to 5.78
inhibition at 0.66 µM ([1]; Homo sapiens, 0.66 microM BM 13 177, 100 ng/ml U 46 619): 16%
inhibition at 0.66 µM ([2]; Homo sapiens, Platelet, 0.66 microM BM 13 177, 50 ng/ml U 46 619): 28%
pIC50 ([2]; Platelet, BM 13 177, read-out: IC50 for the shape change): 5.48 to 5.78
% Inhibition (2nd wave of aggregation) ([3]; 0.165 microM BM 13 177): no inhibition
pIC50 ([3]; BM 13 177): 6.18 to 6.48
inhibition of collagen-induced thrombocytopenia ([4]; BM 13 177 0.5 mg/kg/min (lowest dosage), MW±SE): about 27±6%
platelet inhibition in vivo ([4]; BM 13 177 2 mg/kg i.v. infusion): 27%
inhibition of collagen-induced thrombocytopenia on raising the dosage (in words) ([4]; BM 13 177 1.0-2.0 mg/kg/min): cannot be increased by raising the dosage
increase of thrombogenic ADP concentration (factor) ([5]; BM 13 177 25 mg/kg i.v., significant): ~4
antithrombotic effect, Hb content of thrombi (in words) ([6]; BM 13 177 20 mg/kg i.v. bolus + 50 micrograms/kg/min i.v., monotherapy): ineffective
antithrombotic effect (in words) ([6]; BM 13 177 as monotherapy): not antithrombotically effective

CC#CCC(C)[C@H](O)/C=C/[C@@H]1[C@H]2C/C(=C/CCCC(=O)O)C[C@H]2C[C@H]1O (stereo partly shown) [Iloprost]
inhibition at 0.0001 µg/mL ([1]; Homo sapiens, 0.1 ng/ml Iloprost, 100 ng/ml U 46 619): 2%
pIC50 ([1]; Iloprost, human PRP, stimulant U 46 619, read-out: IC50 for the aggregation inhibition): 8.59 to 8.89
% Inhibition (shape change) ([2]; 0.1 ng/ml Iloprost, 50 ng/ml U 46 619): no inhibition
pIC50 ([2]; Platelet, Iloprost, read-out: IC50 for the shape change inhibition): 8.89 to 9.28
% Inhibition (2nd wave of aggregation) ([3]; 0.1 ng/ml Iloprost): no inhibition
pIC50 ([3]; Iloprost): 9.19 to 9.59
inhibition of collagen-induced thrombocytopenia (in words) ([4]; Iloprost 0.1-0.33-1.0 micrograms/kg/min): inhibits the collagen-induced thrombocytopenia, depending on the dose
increase of thrombogenic ADP concentration (factor) ([5]; Iloprost 0.1 microgram/kg/min i.v. (threshold dose)): 2.8
antithrombotic effect, Hb content of thrombi (in words) ([6]; Iloprost 30 ng/kg/min i.v., individual dose): not significantly effective
reduction of diastolic blood pressure [7]: 20%
